Test results reported in patent US7994204B2, “Binding inhibitor of sphingosine-1-phosphate” (Taisho Pharmaceutical Co., Ltd, priority 2006, dated 2011).

Target: T1, human Edg-1 (S1P1) (Homo sapiens, UniProt P21453)
T1 construct: expressed in transfected cells; host or cells: HEK-293
Assay: S1P1 binding inhibition test (membrane, [33P]-S1P)
Conditions: compound 10 μM; [33P]-S1P 0.1 nM; human Edg-1 (S1P1) HEK-293 membrane fraction; read-out: Binding test (membrane) % inhibition (10 μM)
Method: The membrane fraction was obtained by treating the cells with a solubilizing buffer (1 mM Tris/HCl, pH 7.2) for 10 minutes on ice, centrifuging at 1000×g for 5 minutes to remove insoluble fractions, and then centrifuging at 40000×g for 30 minutes at 4° C. The resulting membrane fraction was dissolved in a binding buffer (20 mM Tris-HCl, pH 7.4, 100 mM NaCl, 15 mM NaF, 2 mM deoxypyridoxine, 4 mg/mL fatty acid-free BSA), and then [^33P]-S1P (manufactured by ARC, final concentration 0.1 nM) and a DMSO solution (final concentration of the compound 10^−5 M, final concentration of DMSO 0.1%) of the test compound were added. Thereafter, the mixture was stirred and then treated for one hour at 30° C. Using a harvester, the membrane fraction was harvested onto unifilter-96 GF/C filter (manufactured by Perkin Elmer), washing was carried out four times with the binding buffer, and the filter was dried. Twenty five μL Microscint 0 (manufactured by Perkin Elmer) was added, and radioactivity was measured using Top Count NXT (manufactured by Packard) to calculate the amount (A) of [^33P]-S1P bound to the membrane fraction at the time when the compound was added.
The same procedure was carried out in the absence of the test compound, and the amount (B) of [^33P]-S1P bound was calculated. Further, the same procedure was carried out in the absence of the test compound by use of HEK-293 cells to which no Edg-1 (S1P1) gene was introduced, and the background amount (C) of [^33P]-S1P bound was calculated.
Inhibition rate (%)=[1−(A−C)/(B−C)]×100.
Moreover, the concentration required for a test compound to produce 50% inhibition of the binding caused in the absence of the test compound was also calculated (IC50). The above membrane system binding test was performed in the presence of a test compound at various concentrations to calculate the inhibition rate of Edg-1(S1P1) binding at each concentration according to the above equation, followed by calculating an IC50 value for each compound with data analysis software, Origin (Lightstone Corp., Japan).

T1 sequence (P21453 whole entry): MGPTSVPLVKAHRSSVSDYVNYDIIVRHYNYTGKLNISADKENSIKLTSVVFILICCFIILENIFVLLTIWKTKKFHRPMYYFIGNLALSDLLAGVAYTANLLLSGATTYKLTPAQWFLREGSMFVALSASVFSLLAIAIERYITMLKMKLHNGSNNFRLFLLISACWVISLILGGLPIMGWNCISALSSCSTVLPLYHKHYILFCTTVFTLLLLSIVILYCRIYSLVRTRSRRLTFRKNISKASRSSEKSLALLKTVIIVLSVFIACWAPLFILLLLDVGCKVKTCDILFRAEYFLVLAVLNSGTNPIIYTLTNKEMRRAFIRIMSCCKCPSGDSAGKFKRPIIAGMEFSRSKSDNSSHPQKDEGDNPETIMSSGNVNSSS

Point of comparison: CCn1c(C(C)NS(=O)(=O)c2ccc(Br)cc2OC(F)(F)F)cnc1Oc1ccc(C)cc1 (stereo not drawn) [Compound 10], inhibition at 10 µM 68.6%. Against it:
- CCn1c(C(C)NS(=O)(=O)c2ccc(C(C)=O)cc2)cnc1Oc1ccc(C)cc1 (stereo not drawn) [Compound 3] — higher, 96.7%
- CCn1c(C(C)NS(=O)(=O)c2ccccc2)cnc1Oc1ccc(C)cc1 (stereo not drawn) [Compound 4] — higher, 72.8%
- CCn1c(C(C)NS(=O)(=O)c2ccc(Br)cc2)cnc1Oc1ccc(C)cc1 (stereo not drawn) [Compound 5] — higher, 106%
- CCn1c(C(C)NS(=O)(=O)c2ccc(C(C)(C)C)cc2)cnc1Oc1ccc(C)cc1 (stereo not drawn) [Compound 6] — lower, 54.7%
- CCn1c(C(C)NS(=O)(=O)c2ccccc2Br)cnc1Oc1ccc(C)cc1 (stereo not drawn) [Compound 7] — lower, 63.3%
- CCn1c(C(C)NS(=O)(=O)c2cccc(Br)c2)cnc1Oc1ccc(C)cc1 (stereo not drawn) [Compound 9] — higher, 113%
- CCn1c(C(C)NS(=O)(=O)c2ccc(Cl)cc2)cnc1Oc1ccc(C)cc1 (stereo not drawn) [Compound 11] — higher, 103%
- CCn1c(C(C)NS(=O)(=O)c2ccc(Cl)c3nonc23)cnc1Oc1ccc(C)cc1 (stereo not drawn) [Compound 12] — lower, 68.1%
- CCn1c(C(C)NS(=O)(=O)c2cccc(C#N)c2)cnc1Oc1ccc(C)cc1 (stereo not drawn) [Compound 13] — lower, 64.4%
- CCn1c(C(C)NS(=O)(=O)c2sc3ccc(Cl)cc3c2C)cnc1Oc1ccc(C)cc1 (stereo not drawn) [Compound 14] — higher, 76.5%
- CCn1c(C(C)NS(=O)(=O)c2ccc(C)c(Cl)c2)cnc1Oc1ccc(C)cc1 (stereo not drawn) [Compound 15] — higher, 108%
- CCn1c(C(C)NS(=O)(=O)c2cc(C)c(Cl)cc2C)cnc1Oc1ccc(C)cc1 (stereo not drawn) [Compound 16] — higher, 109%
- CCn1c(C(C)NS(=O)(=O)c2cc(Cl)ccc2Cl)cnc1Oc1ccc(C)cc1 (stereo not drawn) [Compound 17] — higher, 80%
- CCn1c(C(C)NS(=O)(=O)c2c(Cl)cccc2Cl)cnc1Oc1ccc(C)cc1 (stereo not drawn) [Compound 18] — higher, 72.8%
- CCn1c(C(C)NS(=O)(=O)c2ccc(OC)c(OC)c2)cnc1Oc1ccc(C)cc1 (stereo not drawn) [Compound 19] — higher, 87.3%
- CCc1ccc(S(=O)(=O)NC(C)c2cnc(Oc3ccc(C)cc3)n2CC)cc1 (stereo not drawn) [Compound 21] — lower, 66.8%
- CCn1c(C(C)NS(=O)(=O)c2ccc(F)cc2)cnc1Oc1ccc(C)cc1 (stereo not drawn) [Compound 22] — higher, 92.1%
- CCn1c(C(C)NS(=O)(=O)c2ccc(OC)cc2)cnc1Oc1ccc(C)cc1 (stereo not drawn) [Compound 23] — higher, 98.6%
- CCn1c(C(C)NS(=O)(=O)c2ccc(S(C)(=O)=O)cc2)cnc1Oc1ccc(C)cc1 (stereo not drawn) [Compound 25] — lower, 62%
- CCn1c(C(C)NS(=O)(=O)c2cccc3ccccc23)cnc1Oc1ccc(C)cc1 (stereo not drawn) [Compound 27] — lower, 68.5%
- CCn1c(C(C)NS(=O)(=O)c2ccc3ccccc3c2)cnc1Oc1ccc(C)cc1 (stereo not drawn) [Compound 28] — higher, 114%
- CCn1c(C(C)NS(=O)(=O)CCc2cccc3ccccc23)cnc1Oc1ccc(C)cc1 (stereo not drawn) [Compound 29] — lower, 52.5%
- CCn1c(C(C)NS(=O)(=O)c2c(F)c(F)c(F)c(F)c2F)cnc1Oc1ccc(C)cc1 (stereo not drawn) [Compound 30] — higher, 75.8%
- CCn1c(C(C)NS(=O)(=O)c2ccc(I)cc2)cnc1Oc1ccc(C)cc1 (stereo not drawn) [Compound 31] — higher, 93.3%
- CCn1c(C(C)NS(=O)(=O)/C=C/c2ccccc2)cnc1Oc1ccc(C)cc1 (stereo not drawn) [Compound 32] — higher, 93.5%
- CCn1c(C(C)NS(=O)(=O)c2cc(Cl)c(Cl)cc2Cl)cnc1Oc1ccc(C)cc1 (stereo not drawn) [Compound 33] — higher, 115%
- CCn1c(C(C)NS(=O)(=O)c2ccc(C)cc2)cnc1Oc1ccc(C)cc1 (stereo not drawn) [Compound 35] — higher, 98.1%
- CCn1c(C(C)NS(=O)(=O)c2cccc(C(F)(F)F)c2)cnc1Oc1ccc(C)cc1 (stereo not drawn) [Compound 37] — higher, 98.5%
- CCn1c(C(C)NS(=O)(=O)c2ccccc2C)cnc1Oc1ccc(C)cc1 (stereo not drawn) [Compound 38] — higher, 79.8%
- CCn1c(C(C)NS(=O)(=O)c2ccc(OC(F)(F)F)cc2)cnc1Oc1ccc(C)cc1 (stereo not drawn) [Compound 39] — lower, 64.8%
- C=Cc1ccc(S(=O)(=O)NC(C)c2cnc(Oc3ccc(C)cc3)n2CC)cc1 (stereo not drawn) [Compound 40] — higher, 81.2%
- CCn1c(C(C)NS(=O)(=O)c2cccc(C)c2)cnc1Oc1ccc(C)cc1 (stereo not drawn) [Compound 41] — higher, 82.3%
- CCn1c(C(C)NS(=O)(=O)c2ccc(C(F)(F)F)cc2)cnc1Oc1ccc(C)cc1 (stereo not drawn) [Compound 44] — higher, 93.5%
- CCn1c(C(C)NS(=O)(=O)c2cc(C)ccc2C)cnc1Oc1ccc(C)cc1 (stereo not drawn) [Compound 45] — higher, 85.8%
- CCn1c(C(C)NS(=O)(=O)c2ccc(-c3csnn3)s2)cnc1Oc1ccc(C)cc1 (stereo not drawn) [Compound 46] — lower, 58.8%
- CCn1c(C(C)NS(=O)(=O)c2ccc(C(=O)OC)n2C)cnc1Oc1ccc(C)cc1 (stereo not drawn) [Compound 51] — higher, 93.7%
- CCCc1ccc(S(=O)(=O)NC(C)c2cnc(Oc3ccc(C)cc3)n2CC)cc1 (stereo not drawn) [Compound 56] — lower, 57.3%
- CCn1c(C(C)NS(=O)(=O)c2ccc(Cl)c(Cl)c2Cl)cnc1Oc1ccc(C)cc1 (stereo not drawn) [Compound 57] — higher, 103%
- CCn1c(C(C)NS(=O)(=O)c2c(C)c(C)cc(C)c2C)cnc1Oc1ccc(C)cc1 (stereo not drawn) [Compound 58] — lower, 66.4%
- CCn1c(C(C)NS(=O)(=O)c2cccc(Cl)c2Cl)cnc1Oc1ccc(C)cc1 (stereo not drawn) [Compound 59] — higher, 101%
- CCn1c(C(C)NS(=O)(=O)c2c(C)cccc2Cl)cnc1Oc1ccc(C)cc1 (stereo not drawn) [Compound 60] — lower, 64.5%
- CCn1c(C(C)NS(=O)(=O)c2cc(C(F)(F)F)cc(C(F)(F)F)c2)cnc1Oc1ccc(C)cc1 (stereo not drawn) [Compound 62] — higher, 85.6%
- CCn1c(C(C)NS(=O)(=O)c2cc(Cl)cc(Cl)c2)cnc1Oc1ccc(C)cc1 (stereo not drawn) [Compound 63] — higher, 95.3%
- CCn1c(C(C)NS(=O)(=O)c2cccc(Cl)c2C)cnc1Oc1ccc(C)cc1 (stereo not drawn) [Compound 64] — higher, 96.7%
- CCn1c(C(C)NS(=O)(=O)c2ccc(F)c(Cl)c2)cnc1Oc1ccc(C)cc1 (stereo not drawn) [Compound 65] — higher, 106%
- CCn1c(C(C)NS(=O)(=O)c2cccc(OC)c2)cnc1Oc1ccc(C)cc1 (stereo not drawn) [Compound 66] — higher, 89.9%
- CCn1c(C(C)NS(=O)(=O)c2cc(F)c(Br)cc2F)cnc1Oc1ccc(C)cc1 (stereo not drawn) [Compound 67] — higher, 84.6%
- CCn1c(C(C)NS(=O)(=O)c2c(C)cc(OC)c(C)c2C)cnc1Oc1ccc(C)cc1 (stereo not drawn) [Compound 68] — lower, 64.7%
- CCn1c(C(C)NS(=O)(=O)c2cc(Br)ccc2OC)cnc1Oc1ccc(C)cc1 (stereo not drawn) [Compound 69] — higher, 82.9%
- CCn1c(C(C)NS(=O)(=O)c2cc(F)ccc2C)cnc1Oc1ccc(C)cc1 (stereo not drawn) [Compound 70] — lower, 56.8%
- CCn1c(C(C)NS(=O)(=O)c2c(C)c(C)c(C)c(C)c2C)cnc1Oc1ccc(C)cc1 (stereo not drawn) [Compound 71] — higher, 72%
- CCn1c(C(C)NS(=O)(=O)c2ccc(Br)c(Br)c2)cnc1Oc1ccc(C)cc1 (stereo not drawn) [Compound 72] — higher, 90.1%
- CCn1c(C(C)NS(=O)(=O)c2cc(C)ccc2OC)cnc1Oc1ccc(C)cc1 (stereo not drawn) [Compound 73] — higher, 74.3%
- CCn1c(C(C)NS(=O)(=O)c2ccc(Cl)c(Cl)c2)cnc1Oc1ccc(C)cc1 (stereo not drawn) [Compound 74, 3,4-Dichloro-N-[1-(3-ethyl-2(4-methylphenoxy)-3H-imidazol-4-yl)-ethyl]-benzenesulfonamide] — higher, 101%
- CCn1c(C(C)NS(=O)(=O)c2ccc(C#N)cc2)cnc1Oc1ccc(C)cc1 (stereo not drawn) [Compound 76] — higher, 89.3%
- CCn1c(C(C)NS(=O)(=O)c2c(Cl)cc(Cl)cc2Cl)cnc1Oc1ccc(C)cc1 (stereo not drawn) [Compound 78] — lower, 66.7%
- CCn1c(C(C)NS(=O)(=O)c2ccc(Cl)cc2Cl)cnc1Oc1ccc(C)cc1 (stereo not drawn) [Compound 79] — higher, 90.1%
- CCn1c(C(C)NS(=O)(=O)c2ccc(F)cc2F)cnc1Oc1ccc(C)cc1 (stereo not drawn) [Compound 80] — lower, 61.2%
- CCn1c(C(C)NS(=O)(=O)c2cc(OC)ccc2OC)cnc1Oc1ccc(C)cc1 (stereo not drawn) [Compound 81] — higher, 83.1%
- CCn1c(C(C)NS(=O)(=O)c2cccc(Cl)c2)cnc1Oc1ccc(C)cc1 (stereo not drawn) [Compound 84] — higher, 72.4%
- CCn1c(C(C)NS(=O)(=O)c2cc(F)cc(Cl)c2C)cnc1Oc1ccc(C)cc1 (stereo not drawn) [Compound 86] — higher, 74.4%
- CCc1cc(Br)ccc1S(=O)(=O)NC(C)c1cnc(Oc2ccc(C)cc2)n1CC (stereo not drawn) [Compound 87] — lower, 65.6%
- CCn1c(C(C)NS(=O)(=O)c2ccc(Br)cc2C)cnc1Oc1ccc(C)cc1 (stereo not drawn) [Compound 88] — higher, 74.2%
- CCn1c(C(C)NS(=O)(=O)c2ccc(C#N)cc2Cl)cnc1Oc1ccc(C)cc1 (stereo not drawn) [Compound 89] — higher, 71.8%

Same assay, conditions: read-out: Binding test (membrane) % inhibition (10 μM)

Work on CCn1c(C(C)NS(=O)(=O)c2ccc(F)cc2Cl)cnc1Oc1ccc(C)cc1 (stereo not drawn) [Compound 82] yielded an inhibition at 10 µM of 64.2%.
